In paper PMC12030497, “Plasma Protein Binding, Biostability, Metabolite Profiling, and CYP450 Phenotype of TPB15 Across Different Species: A Novel Smoothened Inhibitor for TNBC Therapy” (Pharmaceutics, 2025):

Key:
[1] = Plasma protein binding by ultrafiltration, dog plasma; assay type: in vitro ADME; details: beagle
Procedure: (§1) To prepare plasma samples of TPB15 at final concentrations of 4, 8, and 16 μg/mL, 1 μL of TPB15 dissolved in dimethyl sulfoxide (DMSO) at low (400 μg/mL), medium (800 μg/mL), and high (1600 μg/mL) concentrations was added to 99 μL of blank plasma obtained from humans, rats, mice, monkeys, and dogs. Each concentration was prepared in six replicates. The samples were then divided into two groups: one for determining the pre-ultrafiltration concentration (Cpre) and the other for measuring the post-ultrafiltration concentration (Ct), following the evaluation of the non-specific binding coefficient (NSB) of TPB15 to the ultrafiltration tubes. For Cpre determination, 10 μL of the sample was mixed with 990 μL of plasma, vortexed thoroughly, and analyzed for drug concentration using the previously reported liquid chromatography–tandem mass spectrometry (LC-MS/MS) method. For Ct determination, the samples were first incubated in a water bath at 37 °C for 3 h. After incubation, they were transferred to ultrafiltration tubes and centrifuged at 14,000 rpm for 20 min at 4 °C using a centrifuge (Sigma 3K-15) from Sigma Laborzentrifugen GmbH (Osterode am Harz, Germany). After centrifugation, 10 μL of the ultrafiltrate was mixed with 990 μL of plasma, vortexed, and analyzed for concentration using the same LC-MS/MS method. The formula for calculating the plasma protein binding rate (PPB) is as follows: PPB (%) = [1 − Ct/(1 − NSB)/Cpre] × 100%. (NSB: non-specific binding coefficient. Cpre: post-ultrafiltration concentration. Ct: pre-ultrafiltration concentration).

[2] = system: normal mammary epithelial cells (MCF10A); set-up: method as in PMID 32690258; details: read-out: half-maximal inhibitory concentration (IC50) on normal mammary epithelial cells (MCF10A); cited from earlier work
[3] = Metabolic stability in monkey liver microsomes (MLM); assay type: in vitro ADME, crab-eating monkey
Procedure: (§2) A total of 450 μL liver microsomes from mice, rat, dog, monkey, and human were spiked with 0.5 μL of TPB15 solution and pre-incubated in a water bath at 37 °C for 10 min. Following this, 50 μL of NADPH were added to initiate the reaction. The concentrations of each substance in the incubation system are detailed in Table 1. After initiating the metabolic reaction, 50 μL aliquots were removed at incubation times of 0, 5, 15, 30, 45, 60, and 90 min and transferred to 150 μL of icy methanol solution containing the internal standard to terminate the reaction. The mixtures were swirled for 2 min and then centrifuged at 14,800 rpm at 4 °C for 10 min. […] Three samples were prepared in parallel at each time point. Additionally, both a positive control group and a blank control group were established. In the positive control group, substrate testosterone was incubated with liver microsomes from mice, rat, dog, monkey, and human. The concentrations of substrate testosterone were measured at 0 and 90 min, and the changes in concentration before and after incubation were compared to confirm the activity of the liver microsomes. The blank control group included one drug-containing inactivated liver microsome sample for each species. The metabolic stability parameters, including in vitro elimination half-life (T1/2) and in vitro intrinsic clearance rate (CLint), were calculated based on this graph using the following formulas: in vitro elimination half-life (T1/2) = −0.693/k and in vitro intrinsic clearance rate (CLint) = (0.693 × incubation medium (mL))/(liver microsomes (mg) × T1/2).

[4] = Metabolite identification in human liver microsomes; assay type: in vitro ADME; details: metabolite +16 Da, seen at 45 and 90 min, not at 0 min
Procedure: A total of 450 μL of human liver microsomes were spiked with 0.5 μL of the substrate TPB15 and incubated in a water bath at 37 °C for 10 min. The reaction was initiated by adding 50 μL of NADPH. Following incubation, 50 μL of the reaction mixture were transferred to 150 μL of ice-cold methanol to terminate the reaction. The mixture was then centrifuged at 14,800 rpm at 4 °C for 10 min. A volume of 5 μL of the supernatant was collected for analysis using a QTRAP 4000 mass spectrometer(AB Sciex, Framingham, MA, USA), with three parallel samples prepared for each time point. The primary mass spectrometry conditions were as follows: curtain gas at 30 psi, sprayer gas (GS1) at 50 psi, drier gas (GS2) at 50 psi, ion source temperature at 550 °C, and cluster-removal voltage at 100 V. The ion source (IS) spray voltage was set to 5500 V, with a focusing potential (FP) of 200 V, an entrance potential (EP) of 10 V, an exit potential (CXP) of 15 V, and a collision energy of 86 V for TPB15. Chromatographic separation was performed using an Agilent ZORBAX Stable Bond C18 column (50 mm × 2.1 mm i.d., 3.5 μm particle size) at a column temperature of 35 °C. The injection volume was 5 μL, and the elution was carried out in gradient mode. The mobile phase consisted of two components: mobile phase A (an aqueous solution with 0.1% formic acid) and mobile phase B (methanol). […]

[5] = Plasma protein binding, overall across the five species; assay type: in vitro ADME, mice, rats, dogs, monkeys, humans; details: monkey, human, all species tested, low, medium and high concentrations (4 to 16 μg/mL), read-out: plasma protein binding rate, overall
Procedure: as §1, with “The formula for calculating the plasma protein binding rate (PPB) is as follows: PPB (%) = [1 − Ct/(1 − NSB)/Cpre] × 100%. (NSB: non-specific binding coefficient. Cpre: post-ultrafiltration concentration. Ct: pre-ultrafiltration concentration).” left out

[6] = Metabolic stability in human liver microsomes (HLM); assay type: in vitro ADME
Procedure: as §2

[7] = Metabolic stability in mouse liver microsomes (MouLM); assay type: in vitro ADME, KM mice
Procedure: as §2

[8] = Metabolic stability in rat liver microsomes (RLM); assay type: in vitro ADME, Sprague-Dawley rat
Procedure: as §2

[9] = system: CYP450 enzymes in human liver microsomes; assay: Metabolic enzyme phenotype of TPB15 in human liver microsomes with selective CYP450 inhibitors; assay type: in vitro ADME
Procedure: The specific procedure was as follows: a total of 0.5 μL of the substrate TPB15 and 0.5 μL of each specific inhibitor were mixed with 449 μL of human liver microsomes, and the mixture was incubated at 37 °C for 10 min. Subsequently, 50 μL of NADPH with a concentration of 10 mM in PBS were introduced to initiate the reaction. After 90 min, 50 μL of the reaction mixture were transferred to a 150 μL ice-cold methanol solution containing an internal standard to terminate the reaction. The mixture was vortexed for 2 min and then centrifuged at 4 °C at 14,800 rpm for 10 min. A volume of 130 μL of the supernatant was then transferred to a new EP tube, which was centrifuged again at 4 °C at 14,800 rpm for another 10 min. Finally, 5 μL of the supernatant were injected for the determination of substrate TPB15 concentration. Three parallel samples were prepared for each time point. The experiment also included a positive control group and a negative control group. In the positive control group, substrate TPB15 was incubated with human liver microsomes for 90 min without the addition of inhibitors. In the negative control group, the substrate TPB15 was incubated for 90 min without inhibitors, with human liver microsomes replaced by an equal volume of phosphate-buffered saline (PBS). The metabolic rate of TPB15 in human liver microsomes was represented by the elimination rate of the substrate TPB15.

[10] = system: MDA-MB-468; set-up: method as in PMID 32690258; details: MDA-MB-468, in vitro; cited from earlier work

O=C(Nc1ccc(Cl)c(-c2nnc3c(Cl)cccn23)c1)c1ccc(Cl)nc1Cl [TPB15]
fraction unbound at 3 h, 4 μg/mL ([1]; dog, plasma, 4 μg/mL TPB15, ultrafiltration, 37 °C 3 h): 0.185
fraction unbound at 3 h, 8 μg/mL ([1]; dog, plasma, 8 μg/mL TPB15, ultrafiltration, 37 °C 3 h): 0.19
fraction unbound at 3 h, 16 μg/mL ([1]; dog, plasma, 16 μg/mL TPB15, ultrafiltration, 37 °C 3 h): 0.177
fraction unbound at 3 h ([1]; dog plasma, 4 to 16 μg/mL, read-out: average plasma protein binding rates, range over concentrations): 0.177 to 0.19
IC50 [2]: 169 µM
T1/2 (min), in vitro elimination half-life ([3]; MLM, 5 μM TPB15, 0.5 mg/mL microsomes): 88.34 min
remaining proportion of TPB15 in liver microsomes ([3]; crab-eating monkey microsomes, 90 min, 5 μM TPB15, 0.5 mg/mL, NADPH 1 mM): 48.0 ± 2.86%
microsomal CLint at 5 μM ([3]; monkey liver microsomes, MLM, 5 μM TPB15, 0.5 mg/mL microsomes, read-out: CLint (mL/min/mg), in vitro intrinsic clearance rate): 0.0941 mL/min/mg
half-life at 5 μM ([3]; monkey liver microsomes, MLM, 5 μM TPB15, 0.5 mg/mL microsomes, read-out: T1/2 (min), in vitro elimination half-life): 88 min
metabolic reaction of TPB15 in human liver microsomes [4]: oxidation
fraction unbound at 3 h ([5]; SD (rat), KM (mouse), beagle (dog)): 0.176 to 0.191
fraction unbound at 3 h ([5]; mouse, rat, dog): 0.176 to 0.185
remaining proportion of TPB15 in liver microsomes ([6]; human microsomes, 90 min, 5 μM TPB15, 0.5 mg/mL, NADPH 1 mM): 55.0 ± 2.81%
microsomal CLint at 5 μM ([6]; human, liver microsomes, HLM, 5 μM TPB15, 0.5 mg/mL microsomes, read-out: CLint (mL/min/mg), in vitro intrinsic clearance rate): 0.0805 mL/min/mg
half-life at 5 μM ([6]; human, liver microsomes, HLM, 5 μM TPB15, 0.5 mg/mL microsomes, read-out: T1/2 (min), in vitro elimination half-life): 103 min
remaining proportion of TPB15 in liver microsomes ([7]; KM mice microsomes, 90 min, 5 μM TPB15, 0.5 mg/mL, NADPH 1 mM): 80.0 ± 5.93%
microsomal CLint at 5 μM ([7]; KM, mouse, liver microsomes, MouLM, 5 μM TPB15, 0.5 mg/mL microsomes, read-out: CLint (mL/min/mg), in vitro intrinsic clearance rate): 0.0273 mL/min/mg
remaining proportion of TPB15 in liver microsomes ([8]; Sprague-Dawley rat microsomes, 90 min, 5 μM TPB15, 0.5 mg/mL, NADPH 1 mM): 76.0 ± 0.89%
microsomal CLint at 5 μM ([8]; Sprague-Dawley, rat, liver microsomes, RLM, 5 μM TPB15, 0.5 mg/mL microsomes, read-out: CLint (mL/min/mg), in vitro intrinsic clearance rate): 0.0344 mL/min/mg
primary metabolic enzymes involved in TPB15 metabolism [9]: CYP2C9 and CYP3A4
inhibition of proliferation of TNBC cell line [10]: significantly inhibits the proliferation
